This experiment has as its target IRAK4 (Homo sapiens (Human), UniProt Q9NWZ3). The experiment is described as follows: IRAK4 Inhibition Assay. The note with it: ATP 500 μM; IRAK4 0.6 nM. Format: biochemical. As to the method:
The assays were performed in U-bottom 384-well plates. The final assay volume was 30 μL prepared from 15 μL additions of enzyme and substrates (fluoresceinated peptide and ATP) and test compounds in assay buffer (20 mM HEPES pH 7.2, 10 mM MgCl2, 0.015% Brij 35 and 4 mM DTT). The reaction was initiated by the combination of IRAK4 with substrates and test compounds. The reaction mixture was incubated at room temperature for 60 min. and terminated by adding 45 μL of 35 mM EDTA to each sample. The reaction mixture was analyzed on the Caliper LABCHIP® 3000 (Caliper, Hopkinton, Mass.) by electrophoretic separation of the fluorescent substrate and phosphorylated product. Inhibition data were calculated by comparison to no enzyme control reactions for 100% inhibition and vehicle-only reactions for 0% inhibition. The final concentrations of reagents in the assays are ATP, 500 μM; FL-IPTSPITTTYFFFKKK peptide 1.5 μM; IRAK4, 0.6 nM; and DMSO, 1.6%.
Sequence of IRAK4 (Q9NWZ3 whole entry, species assumed): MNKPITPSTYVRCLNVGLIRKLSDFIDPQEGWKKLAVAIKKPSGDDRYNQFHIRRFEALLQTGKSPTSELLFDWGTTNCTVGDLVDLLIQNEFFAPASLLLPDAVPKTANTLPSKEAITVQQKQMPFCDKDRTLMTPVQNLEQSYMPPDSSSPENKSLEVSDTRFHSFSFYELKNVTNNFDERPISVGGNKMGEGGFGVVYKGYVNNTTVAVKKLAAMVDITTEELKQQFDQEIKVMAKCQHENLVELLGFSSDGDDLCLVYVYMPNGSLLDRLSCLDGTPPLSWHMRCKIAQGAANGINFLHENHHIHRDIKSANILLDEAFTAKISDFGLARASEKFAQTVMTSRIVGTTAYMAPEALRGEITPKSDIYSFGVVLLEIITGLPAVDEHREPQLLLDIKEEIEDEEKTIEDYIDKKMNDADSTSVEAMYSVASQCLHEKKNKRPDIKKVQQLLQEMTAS
As to `CCCn1cc(-c2cnc(-n3cnc4cc(C#N)cnc43)cc2NC2CCOCC2)nn1` [Example 50, 3-(5-(1-propyl-1H-1,2,3-triazol-4-yl)-4-((tetrahydro-2H-pyran-4-yl)amino)pyridin-2-yl)-3H-imidazo[4,5-b]pyridine-6-carbonitrile], the IC50 came to 5 nM.
The value for `CCCn1cc(-c2cnc(-n3ncc4cc(C#N)c(N)nc43)cc2NC2CCOCC2)nn1` [Example 51, 6-amino-1-(5-(1-propyl-1H-1,2,3-triazol-4-yl)-4-((tetrahydro-2H-pyran-4-yl)amino)pyridin-2-yl)-1H-pyrazolo[3,4-b]pyridine-5-carbonitrile] was 3 nM; that for `CCCn1cc(-c2cnc(-n3cnc4cc(C#N)cnc43)cc2NCC)nn1` [Example 55, 3-(4-(ethylamino)-5-(1-propyl-1H-1,2,3-triazol-4-yl)pyridin-2-yl)-3H-imidazo[4,5-b]pyridine-6-carbonitrile] was 8 nM.
The value for `CCCn1cc(-c2cnc(-n3ncc4cc(C#N)cnc43)cc2Nc2cnn(CC)c2)nn1` [Example 58, 1-(4-((1-ethyl-1H-pyrazol-4-yl)amino)-5-(1-propyl-1H-1,2,3-triazol-4-yl)pyridin-2-yl)-1H-pyrazolo [3,4-b]pyridine-5-carbonitrile] was 93 nM; that for `CCCn1cc(-c2cnc(-n3cnc4cc(C#N)cnc43)cc2Nc2cnn(CC(F)F)c2)nn1` [Example 61, 3-(4-((1-(2,2-difluoroethyl)-1H-pyrazol-4-yl)amino)-5-(1-propyl-1H-1,2,3-triazol-4-yl)pyridin-2-yl)-3H-imidazo[4,5-b]pyridine-6-carbonitrile] was 7 nM; that for `CC(C)Nc1cc(-n2cnc3cc(C#N)cnc32)ncc1-c1cn(CC(C)(C)O)nn1` [Example 67, 3-(5-(1-(2-hydroxy-2-methylpropyl)-1H-1,2,3-triazol-4-yl)-4-(isopropylamino)pyridin-2-yl)-3H-imidazo[4,5-b]pyridine-6-carbonitrile] was 32 nM.
As for `CC(C)Nc1cc(-n2cnc3cc(C#N)cnc32)ncc1-c1cn(C[C@@H](C)O)nn1` [Example 68, (R)-3-(5-(1-(2-hydroxypropyl)-1H-1,2,3-triazol-4-yl)-4-(isopropylamino)pyridin-2-yl)-3H-imidazo[4,5-b]pyridine-6-carbonitrile], the figure is 14 nM.
With `CCNc1cc(-n2ncc3cc(C#N)cnc32)ncc1-c1cn(C[C@H](C)O)nn1` [Example 71, (S)-1-(4-(ethylamino)-5-(1-(2-hydroxypropyl)-1H-1,2,3-triazol-4-yl)pyridin-2-yl)-1H-pyrazolo[3,4-b]pyridine-5-carbonitrile], the IC50 turned out to be 40 nM.
The value for `CCNc1cc(-n2cnc3cc(C#N)cnc32)ncc1-c1cn(C[C@H](C)O)nn1` [Example 72, (S)-3-(4-(ethylamino)-5-(1-(2-hydroxypropyl)-1H-1,2,3-triazol-4-yl)pyridin-2-yl)-3H-imidazo [4,5-b]pyridine-6-carbonitrile] was 52 nM; that for `CCOC(=O)Cn1cc(-c2cnc(-n3ncc4cc(C#N)cnc43)cc2NC(C)C)nn1` [Example 98, Ethyl 2-(4-(6-(5-cyano-1H-pyrazolo[3,4-b]pyridin-1-yl)-4-(isopropylamino)pyridin-3-yl)-1H-1,2,3-triazol-1-yl)acetate] was 2 nM.
As for `CC(C)Nc1cc(-n2ncc3cc(C#N)cnc32)ncc1-c1cn(C2CN(C(c3ccccc3)c3ccccc3)C2)nn1` [Example 100, 1-(5-(1-(1-benzhydrylazetidin-3-yl)-1H-1,2,3-triazol-4-yl)-4-(isopropylamino)pyridin-2-yl)-1H-pyrazolo[3,4-b]pyridine-5-carbonitrile], the IC50 was determined as 235 nM.
The value for `CC(C)Nc1cc(-n2ncc3cc(C#N)cnc32)ncc1-c1cn(CC(=O)N2CCOCC2)nn1` [Example 101, 1-(4-(isopropylamino)-5-(1-(2-morpholino-2-oxoethyl)-1H-1,2,3-triazol-4-yl)pyridin-2-yl)-1H-pyrazolo[3,4-b]pyridine-5-carbonitrile] was 5 nM; that for `CC(C)Nc1cc(-n2ncc3cc(C#N)cnc32)ncc1-c1cn(-c2cccc(O)c2)nn1` [Example 103, 1-(5-(1-(3-hydroxyphenyl)-1H-1,2,3-triazol-4-yl)-4-(isopropylamino)pyridin-2-yl)-1H-pyrazolo[3,4-b]pyridine-5-carbonitrile] was 172 nM.
As to `CC(C)Nc1cc(-n2ncc3cc(C#N)cnc32)ncc1-c1cn(-c2ccc(F)c(C#N)c2)nn1` [Example 104, 1-(5-(1-(3-cyano-4-fluorophenyl)-1H-1,2,3-triazol-4-yl)-4-(isopropylamino)pyridin-2-yl)-1H-pyrazolo[3,4-b]pyridine-5-carbonitrile], the 50% inhibitory concentration (IC50) was found to be 399 nM.
For `CC(C)Nc1cc(-n2ncc3cc(C#N)cnc32)ncc1-c1cn([C@@H]2O[C@H](CO)[C@H](O)[C@H](O)[C@H]2O)nn1` [Example 105, 1-(4-(isopropylamino)-5-(1-((2R,3R,4S,5R,6R)-3,4,5-trihydroxy-6-(hydroxymethyl)tetrahydro-2H-pyran-2-yl)-1H-1,2,3-triazol-4-yl)pyridin-2-yl)-1H-pyrazolo[3,4-b]pyridine-5-carbonitrile], the half-maximal inhibitory concentration (IC50) turned out to be 55 nM.
Regarding `Cc1nc2cc(Cn3cc(-c4cnc(-n5ncc6cc(C#N)cnc65)cc4NC(C)C)nn3)ccc2s1` [Example 106, 1-(4-(isopropylamino)-5-(1-((2-methylbenzo[d]thiazol-5-yl)methyl)-1H-1,2,3-triazol-4-yl)pyridin-2-yl)-1H-pyrazolo[3,4-b]pyridine-5-carbonitrile], the IC50 was determined as 321 nM.
The value for `CC(C)Nc1cc(-n2ncc3cc(C#N)cnc32)ncc1-c1cn(Cc2ccccc2)nn1` [Example 107, 1-(5-(1-benzyl-1H-1,2,3-triazol-4-yl)-4-(isopropylamino)pyridin-2-yl)-1H-pyrazolo[3,4-b]pyridine-5-carbonitrile] was 15 nM; that for `CC(C)Nc1cc(-n2ncc3cc(C#N)cnc32)ncc1-c1cn(Cc2nc3ccccc3[nH]2)nn1` [Example 108, 1-(5-(1-((1H-benzo[d]imidazol-2-yl)methyl)-1H-1,2,3-triazol-4-yl)-4-(isopropylamino)pyridin-2-yl)-1H-pyrazolo[3,4-b]pyridine-5-carbonitrile] was 35 nM.
For the compound `CC(C)Nc1cc(-n2ncc3cc(C#N)cnc32)ncc1-c1cn(-c2ccc(F)cc2)nn1` [Example 109, 1-(5-(1-(4-fluorophenyl)-1H-1,2,3-triazol-4-yl)-4-(isopropylamino)pyridin-2-yl)-1H-pyrazolo[3,4-b]pyridine-5-carbonitrile], the concentration for half-maximal inhibition (IC50) was 217 nM.
As for `COc1ccc(Cn2cc(-c3cnc(-n4ncc5cc(C#N)cnc54)cc3NC(C)C)nn2)cc1` [Example 110, 1-(4-(isopropylamino)-5-(1-(4-methoxybenzyl)-1H-1,2,3-triazol-4-yl)pyridin-2-yl)-1H-pyrazolo[3,4-b]pyridine-5-carbonitrile], the half-maximal inhibitory concentration (IC50) was found to be 75 nM.
The value for `CC(C)Nc1cc(-n2ncc3cc(C#N)cnc32)ncc1-c1cn(-c2cccnc2C#N)nn1` [Example 111, 1-(5-(1-(2-cyanopyridin-3-yl)-1H-1,2,3-triazol-4-yl)-4-(isopropylamino)pyridin-2-yl)-1H-pyrazolo[3,4-b]pyridine-5-carbonitrile] was 13 nM.
As for `CC(C)Nc1cc(-n2ncc3cc(C#N)cnc32)ncc1-c1cn(Cc2ccc(F)cc2)nn1` [Example 112, 1-(5-(1-(4-fluorobenzyl)-1H-1,2,3-triazol-4-yl)-4-(isopropylamino)pyridin-2-yl)-1H-pyrazolo[3,4-b]pyridine-5-carbonitrile], the figure is 76 nM; as for `CC(C)Nc1cc(-n2ncc3cc(C#N)cnc32)ncc1-c1cn(-c2ccccc2)nn1` [Example 115, 1-(4-(isopropylamino)-5-(1-phenyl-1H-1,2,3-triazol-4-yl)pyridin-2-yl)-1H-pyrazolo[3,4-b]pyridine-5-carbonitrile], 33 nM.
Turning to `CC(C)Nc1cc(-n2ncc3cc(C#N)cnc32)ncc1-c1cn(CC2(O)CCN(C(=O)OC(C)(C)C)CC2)nn1` [Example 132, tert-butyl 4-((4-(6-(5-cyano-1H-pyrazolo[3,4-b]pyridin-1-yl)-4-(isopropylamino)pyridin-3-yl)-1H-1,2,3-triazol-1-yl)methyl)-4-hydroxypiperidine-1-carboxylate], the 50% inhibitory concentration (IC50) is 51 nM.
As for `COc1ccc(OCC(O)Cn2cc(-c3cnc(-n4ncc5cc(C#N)cnc54)cc3NC(C)C)nn2)cc1` (stereo not shown) [Example 136, 1-(5-(1-(2-hydroxy-3-(4-methoxyphenoxy)propyl)-1H-1,2,3-triazol-4-yl)-4-(isopropylamino)pyridin-2-yl)-1H-pyrazolo[3,4-b]pyridine-5-carbonitrile], the figure is 27 nM; as for `CC(C)Nc1cc(-n2ncc3cc(C#N)cnc32)ncc1-c1cn(C2CNC2)nn1` [Example 138, 1-(5-(1-(azetidin-3-yl)-1H-1,2,3-triazol-4-yl)-4-(isopropylamino)pyridin-2-yl)-1H-pyrazolo[3,4-b]pyridine-5-carbonitrile], 25 nM; as for `CC(=O)N1CC(n2cc(-c3cnc(-n4ncc5cc(Cl)cnc54)cc3NC(C)C)nn2)C1` [Example 155, 1-(3-(4-(6-(5-chloro-1H-pyrazolo[3,4-b]pyridin-1-yl)-4-(isopropylamino)pyridin-3-yl)-1H-1,2,3-triazol-1-yl)azetidin-1-yl)ethanone], 6 nM.
Regarding `CC(C)Nc1cc(-n2ncc3cc(Cl)cnc32)ncc1-c1cn(C)nn1` [Example 165, 2-(5-chloro-1H-pyrazolo[3,4-b]pyridin-1-yl)-N-isopropyl-5-(1-methyl-1H-1,2,3-triazol-4-yl)pyridin-4-amine], the 50% inhibitory concentration (IC50) is 25 nM.
